# Measured values reported in patent US20210038537A1, “Emodin for Use in Regulating Expression of Proteins Involved in Inflammation” (UNIVERSITY OF SOUTH CAROLINA, priority 2018, published 2021).
# Columns and labels:
# [1] = system: MCP-1, TNFα, and NOS2 expression; test: 5FU-induced colon inflammation, inflammatory gene expression by qPCR in a non-disease model; type: in vivo, C57BL/6 mice; conditions: 5FU 3 cycles (40 then 20 mg/Kg) plus emodin 40 mg/Kg 3 times per week; vs 5FU plus vehicle
# Procedure: FIG. 6 illustrates the inhibition of 5FU-induced colon inflammation. 5FU treated mice were administered emodin (40 mg/kg 3×wk) or vehicle treatment (n=5). A non-disease phosphate buffer saline (PBS) group was used as a control (n=5). Following 5FU treatment inflammatory mediators were analyzed in the colon via q PCR. *p<0.05.
# The effects of dietary emodin on colon inflammation following 5FU administration were examined in a non-disease model. C57BL/6 mice were assigned to either emodin or control treatment (n=5). […] 5FU or PBS was administered daily for 5-days followed by a 9-day recovery (×3 cycles). The dose of 5FU was 40 mg/Kg in cycle 1 and 20 mg/Kg in cycles 2 and 3. Emodin (40 mg/Kg) was administered 3 times per week for the duration of the 5FU treatment.
# Given the role of inflammation in chemotherapy-induced toxicity, an analysis of inflammatory genes from the intestines was performed.
# [2] = system: azoxymethane (AOM)/dextran sodium sulfate (DSS) mouse model of colorectal cancer; test: AOM/DSS mouse model of colorectal cancer, tumor number; type: in vivo; conditions: emodin 40 mg/Kg via gavage three days a week for 10 weeks; vehicle approximately 7 tumors
# Procedure: Effects of dietary emodin on tumorigenesis were examined in an azoxymethane (AOM)/dextran sodium sulfate (DSS) mouse model of colorectal cancer. Colorectal cancer was developed in mice according to known methods. Briefly, mice received a single injection of AOM (10 mg/Kg) followed by 2 cycles of DSS (2% in the water for 1 week followed by 2 weeks of plain water) as previously described (see, e.g., Tanaka T. Colorectal carcinogenesis: Review of human and experimental animal studies. J Carcinog 2009; 8:5; Enos R T, Velazquez K T, McClellan J L, et al. High-fat diets rich in saturated fat protect against azoxymethane/dextran sulfate sodium-induced colon cancer. American journal of physiology Gastrointestinal and liver physiology 2016; 310:G906-19).
# The mice were administered either emodin or vehicle treatment (n=12) via gavage at a dose of 40 mg/Kg three days a week for the duration of the AOM/DSS protocol (10 weeks).
# [3] = system: F4/80+ cells (macrophages) in MC38 colon tumors; test: Macrophage infiltration into MC38 colon tumors by flow cytometry; type: in vivo, mouse; conditions: emodin 40 mg/Kg 3 times a week for 4 weeks, tumors of similar sizes
# Procedure: (§1) To test the effects of emodin on TAMs in colorectal cancer, macrophage infiltration into MC38 colon tumors following control or emodin (40 mg/Kg) treatment (3 times a week for 4 weeks) was examined using flow cytometry. Tumors of similar sizes were selected so that emodin effects could be determined independent of any changes in tumor size.
# MC38 tumors = test: MC38 mouse model of adenocarcinoma, tumor weight; type: in vivo; conditions: emodin 40 mg/Kg via gavage three days a week for 4 weeks; vehicle approximately 1,200 mg
# Procedure: The MC38 mouse model of adenocarcinoma was used. Mice (n=4/group) were administered emodin or vehicle treatment via gavage at a dose of 40 mg/Kg three days a week for 4 weeks. Following the 4-week treatment period tumors in the vehicle treated group weighed approximately 1,200 mg, whereas those in the emodin treated group weighed approximately 400 mg.
# [4] = system: pro-tumor markers (Hif1a, IL-10, IL-6 and MCP-1); test: Pro-tumor marker expression in MC38 tumors; type: in vivo, mouse; conditions: emodin 40 mg/Kg
# Procedure: as §1, with “size. […] The effects of emodin on select pro-tumor markers (Hif1a, IL-10, IL-6 and MCP-1) in a tumor was also examined.” for “size.”
# [5] = system: Apc^min/+ model of intestinal tumorigenesis; test: Apc^min/+ model of intestinal tumorigenesis, polyp number; type: in vivo, mouse; conditions: emodin 40 mg/Kg via gavage three days a week for 12 weeks; vehicle approximately 75 polyps
# Procedure: The Apc^min/+ model of intestinal tumorigenesis was utilized to test anti-tumor effects of emodin. Mice were administered emodin or vehicle treatment (n=7/group) via gavage at a dose of 40 mg/Kg three days a week for 12 weeks. Results are illustrated in FIG. 2. As indicated, the vehicle treated group had approximately 75 polyps per mouse, whereas emodin treated mice had less than 40 polyps per mouse.
# 5FU toxicity = test: Functional measures and survival following 5FU administration in a non-disease model; type: in vivo, C57BL/6 mice
# Procedure: Given the positive effects of emodin on inflammation associated with 5FU toxicity, use of emodin was further examined to determine any improvement in quality of life measures with emodin/5FU treatment vs. 5FU treatment alone. The effects of emodin on functional measures and survival following 5FU administration were examined in a non-disease model.
# C57BL/6 mice were assigned to either emodin (40 mg/kg 3×per week; n=9) or vehicle treatment (n=10). 5FU was administered at 40 mg/kg in cycle 1 and 20 mg/kg in cycles 2 and 3. Emodin was administered 3 times per week for the duration of the 5FU treatment.
# Following the final 5FU cycle, mice underwent a mechanical stimulation test and a run to fatigue.
# [6] = following the final 5FU cycle, emodin 40 mg/kg 3x per week
smiles,measurement,setting,value
"Cc1cc(O)c2c(c1)C(=O)c1cc(O)cc(O)c1C2=O [emodin, Emodin]",MCP-1 expression in colon/intestines after 5FU,[1],decrease
same,NOS2 expression in colon/intestines after 5FU,[1],decrease
same,TNFα expression in colon/intestines after 5FU,[1],decrease
same,number of tumors following the 10-week AOM/DSS protocol,[2],approximately 5 tumors
same,F4/80+ cells (macrophages) in colon tumors,[3],significantly reduce
same,tumor weight,MC38 tumors,approximately 400 mg
same,relative expression of Hif1a in tumor,[4],decrease in relative marker expression
same,relative expression of IL-6 in tumor,[4],decrease in relative marker expression
same,relative expression of IL-10 in tumor,[4],decrease in relative marker expression
same,relative expression of MCP-1 in tumor,[4],decrease in relative marker expression
same,polyps per mouse,[5],less than 40 polyps per mouse
same,body weight loss associated with 5FU treatment,5FU toxicity; 3 cycles of 5FU plus emodin 40 mg/kg 3x per week,prevented the body weight loss
same,survival of the 5FU regime,"5FU toxicity; 3 cycles of 5FU plus emodin 40 mg/kg 3x per week, vehicle group 50%",100%
same,5FU induced fatigability (run to fatigue),5FU toxicity; [6],offset
same,5FU induced sensitivity to pain (mechanical stimulation test),5FU toxicity; [6],offset
